Calls of active or inactive are those of the source. Rule as the data show it, for most assays here: actives have a measured Kd and inactives only a lower limit.
What was measured:
[1] = molecular target: T1, Serine/threonine-protein kinase D3 (Homo sapiens, UniProt O94806)
T1 sequence (O94806 whole entry): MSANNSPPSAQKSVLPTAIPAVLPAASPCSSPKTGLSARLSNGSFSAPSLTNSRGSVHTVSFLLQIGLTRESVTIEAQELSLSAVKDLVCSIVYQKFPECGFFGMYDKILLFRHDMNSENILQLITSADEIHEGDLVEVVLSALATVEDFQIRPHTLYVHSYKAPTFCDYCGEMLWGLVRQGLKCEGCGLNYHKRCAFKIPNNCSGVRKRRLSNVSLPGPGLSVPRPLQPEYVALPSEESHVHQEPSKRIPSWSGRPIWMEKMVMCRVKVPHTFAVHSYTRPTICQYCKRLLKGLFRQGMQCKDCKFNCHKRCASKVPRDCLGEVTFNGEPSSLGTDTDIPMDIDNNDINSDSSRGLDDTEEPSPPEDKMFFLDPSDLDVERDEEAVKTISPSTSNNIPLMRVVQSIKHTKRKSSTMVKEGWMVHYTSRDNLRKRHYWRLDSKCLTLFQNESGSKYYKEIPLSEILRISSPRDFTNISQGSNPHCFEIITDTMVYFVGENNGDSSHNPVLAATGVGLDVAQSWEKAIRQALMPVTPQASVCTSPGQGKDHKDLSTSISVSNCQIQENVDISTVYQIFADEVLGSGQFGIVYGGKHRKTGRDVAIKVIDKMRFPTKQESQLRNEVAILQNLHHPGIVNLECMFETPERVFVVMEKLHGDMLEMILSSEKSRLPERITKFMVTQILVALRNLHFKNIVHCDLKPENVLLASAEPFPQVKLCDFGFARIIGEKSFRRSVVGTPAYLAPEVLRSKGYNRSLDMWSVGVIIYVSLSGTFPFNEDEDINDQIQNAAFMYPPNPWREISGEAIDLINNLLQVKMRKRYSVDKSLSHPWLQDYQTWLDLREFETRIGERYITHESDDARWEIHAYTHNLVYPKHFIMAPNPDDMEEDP

[2] = molecular target: Serine/threonine-protein kinase N1 (Homo sapiens, UniProt Q16512)
Serine/threonine-protein kinase N1, sequence (Q16512 whole entry): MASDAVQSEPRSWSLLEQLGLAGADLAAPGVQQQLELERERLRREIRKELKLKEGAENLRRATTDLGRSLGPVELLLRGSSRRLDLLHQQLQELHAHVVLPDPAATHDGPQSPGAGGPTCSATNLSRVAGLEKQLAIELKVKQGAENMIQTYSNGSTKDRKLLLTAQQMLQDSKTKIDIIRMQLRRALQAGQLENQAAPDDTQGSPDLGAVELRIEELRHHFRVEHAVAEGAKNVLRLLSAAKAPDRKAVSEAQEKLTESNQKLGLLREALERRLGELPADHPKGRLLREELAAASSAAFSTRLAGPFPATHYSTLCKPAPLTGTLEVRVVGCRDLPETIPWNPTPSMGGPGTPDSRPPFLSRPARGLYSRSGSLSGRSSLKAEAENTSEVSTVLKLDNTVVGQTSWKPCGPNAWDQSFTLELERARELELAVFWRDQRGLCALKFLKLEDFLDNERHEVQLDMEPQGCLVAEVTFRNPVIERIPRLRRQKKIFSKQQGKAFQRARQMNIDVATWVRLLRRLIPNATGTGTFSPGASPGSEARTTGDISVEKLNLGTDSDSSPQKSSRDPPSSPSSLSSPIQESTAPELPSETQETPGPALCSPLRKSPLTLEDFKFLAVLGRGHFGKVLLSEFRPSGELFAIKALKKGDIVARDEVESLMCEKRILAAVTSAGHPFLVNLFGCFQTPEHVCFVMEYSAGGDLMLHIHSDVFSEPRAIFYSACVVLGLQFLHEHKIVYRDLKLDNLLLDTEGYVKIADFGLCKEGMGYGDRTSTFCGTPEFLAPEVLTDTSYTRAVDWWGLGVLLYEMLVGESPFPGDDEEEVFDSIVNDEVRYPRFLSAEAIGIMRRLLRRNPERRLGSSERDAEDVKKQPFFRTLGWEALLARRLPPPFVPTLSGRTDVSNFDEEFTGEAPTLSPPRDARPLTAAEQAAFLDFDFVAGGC

[3] = molecular target: Citron Rho-interacting kinase (Homo sapiens, UniProt O14578)
Citron Rho-interacting kinase, sequence (O14578 whole entry): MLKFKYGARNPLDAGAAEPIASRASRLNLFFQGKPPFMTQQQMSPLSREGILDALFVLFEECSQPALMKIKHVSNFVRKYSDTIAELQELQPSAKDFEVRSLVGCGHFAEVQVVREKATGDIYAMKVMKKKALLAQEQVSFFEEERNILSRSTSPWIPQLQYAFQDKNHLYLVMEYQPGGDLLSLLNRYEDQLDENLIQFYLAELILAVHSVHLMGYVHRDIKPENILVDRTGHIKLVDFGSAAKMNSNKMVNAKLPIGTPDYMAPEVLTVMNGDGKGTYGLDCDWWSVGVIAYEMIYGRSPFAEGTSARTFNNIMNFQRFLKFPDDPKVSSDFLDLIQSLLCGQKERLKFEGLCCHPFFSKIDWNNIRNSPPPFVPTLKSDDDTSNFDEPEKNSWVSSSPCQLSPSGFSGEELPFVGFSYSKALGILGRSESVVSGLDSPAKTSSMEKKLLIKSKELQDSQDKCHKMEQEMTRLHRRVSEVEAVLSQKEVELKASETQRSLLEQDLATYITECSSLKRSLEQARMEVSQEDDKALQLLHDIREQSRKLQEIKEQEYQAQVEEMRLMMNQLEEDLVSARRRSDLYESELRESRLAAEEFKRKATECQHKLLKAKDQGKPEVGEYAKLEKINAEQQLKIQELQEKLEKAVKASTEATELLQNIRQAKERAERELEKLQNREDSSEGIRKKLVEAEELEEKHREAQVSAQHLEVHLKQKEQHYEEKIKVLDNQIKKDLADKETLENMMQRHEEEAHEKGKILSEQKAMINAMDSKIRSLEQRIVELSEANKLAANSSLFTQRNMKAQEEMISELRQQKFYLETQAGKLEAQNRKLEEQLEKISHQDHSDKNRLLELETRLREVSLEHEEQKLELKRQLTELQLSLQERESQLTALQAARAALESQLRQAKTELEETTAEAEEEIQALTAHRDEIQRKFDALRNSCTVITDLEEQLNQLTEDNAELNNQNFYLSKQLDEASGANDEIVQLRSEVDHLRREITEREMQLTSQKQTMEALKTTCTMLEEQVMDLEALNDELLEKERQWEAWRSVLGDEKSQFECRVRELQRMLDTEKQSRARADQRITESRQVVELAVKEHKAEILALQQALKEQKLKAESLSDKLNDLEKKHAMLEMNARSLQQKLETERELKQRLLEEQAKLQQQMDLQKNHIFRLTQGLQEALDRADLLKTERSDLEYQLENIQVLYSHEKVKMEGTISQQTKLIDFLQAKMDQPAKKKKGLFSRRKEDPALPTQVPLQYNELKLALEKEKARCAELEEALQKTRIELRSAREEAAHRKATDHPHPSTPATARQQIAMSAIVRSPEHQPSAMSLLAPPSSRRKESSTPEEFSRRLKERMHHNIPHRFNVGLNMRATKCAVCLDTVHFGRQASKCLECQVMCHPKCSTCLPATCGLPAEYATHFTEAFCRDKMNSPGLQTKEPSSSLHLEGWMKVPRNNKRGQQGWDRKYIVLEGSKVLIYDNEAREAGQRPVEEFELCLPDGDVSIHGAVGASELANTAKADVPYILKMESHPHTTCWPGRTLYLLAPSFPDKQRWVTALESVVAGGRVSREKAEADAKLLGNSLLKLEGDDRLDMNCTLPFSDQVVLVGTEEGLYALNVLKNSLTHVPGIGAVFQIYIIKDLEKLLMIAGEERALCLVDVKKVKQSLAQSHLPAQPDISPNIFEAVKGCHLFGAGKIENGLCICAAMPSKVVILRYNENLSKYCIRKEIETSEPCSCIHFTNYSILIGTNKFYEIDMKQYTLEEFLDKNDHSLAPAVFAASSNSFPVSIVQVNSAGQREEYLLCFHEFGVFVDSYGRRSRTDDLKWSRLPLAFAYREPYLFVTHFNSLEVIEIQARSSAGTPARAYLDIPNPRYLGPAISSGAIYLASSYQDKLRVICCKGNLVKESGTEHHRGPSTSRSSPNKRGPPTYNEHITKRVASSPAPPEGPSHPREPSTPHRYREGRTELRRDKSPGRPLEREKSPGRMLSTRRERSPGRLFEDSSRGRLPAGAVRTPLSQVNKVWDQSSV

[4] = molecular target: T2, Mitogen-activated protein kinase 15 (Homo sapiens, UniProt Q8TD08)
T2 sequence (Q8TD08 whole entry): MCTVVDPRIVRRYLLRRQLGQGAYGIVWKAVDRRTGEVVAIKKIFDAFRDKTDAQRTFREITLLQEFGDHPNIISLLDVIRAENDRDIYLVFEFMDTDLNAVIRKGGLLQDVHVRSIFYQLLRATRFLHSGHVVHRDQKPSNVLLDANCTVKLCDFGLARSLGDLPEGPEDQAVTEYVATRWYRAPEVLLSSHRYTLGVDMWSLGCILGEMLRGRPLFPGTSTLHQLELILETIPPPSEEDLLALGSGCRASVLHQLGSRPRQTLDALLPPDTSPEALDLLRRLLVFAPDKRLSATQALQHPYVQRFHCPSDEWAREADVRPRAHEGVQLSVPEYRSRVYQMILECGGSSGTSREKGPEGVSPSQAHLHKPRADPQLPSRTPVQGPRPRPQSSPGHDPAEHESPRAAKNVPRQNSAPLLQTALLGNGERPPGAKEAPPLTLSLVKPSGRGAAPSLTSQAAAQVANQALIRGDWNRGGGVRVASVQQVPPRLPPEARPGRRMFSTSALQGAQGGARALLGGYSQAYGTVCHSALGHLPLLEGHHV

[5] = molecular target: Tyrosine-protein kinase BTK (Homo sapiens, UniProt Q06187)
Tyrosine-protein kinase BTK, sequence (Q06187 whole entry): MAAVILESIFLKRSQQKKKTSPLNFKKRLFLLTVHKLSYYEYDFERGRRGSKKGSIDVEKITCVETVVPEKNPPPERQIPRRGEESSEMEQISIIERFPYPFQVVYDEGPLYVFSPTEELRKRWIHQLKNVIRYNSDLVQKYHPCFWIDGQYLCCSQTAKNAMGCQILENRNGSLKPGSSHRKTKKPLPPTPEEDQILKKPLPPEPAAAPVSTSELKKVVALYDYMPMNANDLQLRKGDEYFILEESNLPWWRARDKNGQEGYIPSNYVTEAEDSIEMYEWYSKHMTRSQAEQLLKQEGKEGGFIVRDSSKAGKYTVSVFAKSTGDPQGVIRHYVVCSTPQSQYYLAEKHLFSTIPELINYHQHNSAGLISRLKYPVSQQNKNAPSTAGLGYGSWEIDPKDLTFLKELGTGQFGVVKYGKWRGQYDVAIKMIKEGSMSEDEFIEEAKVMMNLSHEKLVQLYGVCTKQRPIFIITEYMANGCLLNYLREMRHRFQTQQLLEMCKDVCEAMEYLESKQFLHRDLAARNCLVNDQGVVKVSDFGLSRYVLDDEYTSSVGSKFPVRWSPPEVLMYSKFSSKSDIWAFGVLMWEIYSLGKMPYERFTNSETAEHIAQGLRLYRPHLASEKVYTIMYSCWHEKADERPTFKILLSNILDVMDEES

[6] = molecular target: T3, Mitogen-activated protein kinase kinase kinase 2 (Homo sapiens, UniProt Q9Y2U5)
T3 sequence (Q9Y2U5 whole entry): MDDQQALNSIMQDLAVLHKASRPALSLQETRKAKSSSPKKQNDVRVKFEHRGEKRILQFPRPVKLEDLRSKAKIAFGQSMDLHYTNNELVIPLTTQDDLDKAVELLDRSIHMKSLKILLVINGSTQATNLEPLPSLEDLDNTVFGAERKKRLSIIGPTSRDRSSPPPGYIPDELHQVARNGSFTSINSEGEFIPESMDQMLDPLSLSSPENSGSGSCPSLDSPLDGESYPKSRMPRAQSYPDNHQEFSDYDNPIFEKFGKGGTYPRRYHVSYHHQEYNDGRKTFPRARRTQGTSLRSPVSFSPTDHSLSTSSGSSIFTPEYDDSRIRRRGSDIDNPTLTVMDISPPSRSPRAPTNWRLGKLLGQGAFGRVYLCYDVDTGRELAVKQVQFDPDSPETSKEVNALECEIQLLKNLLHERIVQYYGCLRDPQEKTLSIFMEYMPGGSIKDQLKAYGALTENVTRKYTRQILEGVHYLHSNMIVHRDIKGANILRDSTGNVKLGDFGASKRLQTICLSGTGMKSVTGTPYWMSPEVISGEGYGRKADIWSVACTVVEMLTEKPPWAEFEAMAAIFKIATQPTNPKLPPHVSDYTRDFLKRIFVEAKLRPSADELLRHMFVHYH

[7] = molecular target: Casein kinase II subunit alpha' (Homo sapiens, UniProt P19784)
Casein kinase II subunit alpha', sequence (P19784 whole entry): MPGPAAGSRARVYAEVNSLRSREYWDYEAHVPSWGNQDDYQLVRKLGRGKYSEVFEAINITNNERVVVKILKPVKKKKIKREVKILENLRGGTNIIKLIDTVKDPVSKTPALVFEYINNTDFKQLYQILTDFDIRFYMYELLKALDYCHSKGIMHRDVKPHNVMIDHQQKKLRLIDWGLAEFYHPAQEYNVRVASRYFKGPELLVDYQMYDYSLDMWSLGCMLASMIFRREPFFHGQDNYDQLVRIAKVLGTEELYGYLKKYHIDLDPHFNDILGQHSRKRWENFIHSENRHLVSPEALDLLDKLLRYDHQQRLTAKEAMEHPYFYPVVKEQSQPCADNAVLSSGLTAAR

Scaffold protein ILK = molecular target: T4, Scaffold protein ILK (Homo sapiens, UniProt Q13418)
T4 sequence (Q13418 whole entry): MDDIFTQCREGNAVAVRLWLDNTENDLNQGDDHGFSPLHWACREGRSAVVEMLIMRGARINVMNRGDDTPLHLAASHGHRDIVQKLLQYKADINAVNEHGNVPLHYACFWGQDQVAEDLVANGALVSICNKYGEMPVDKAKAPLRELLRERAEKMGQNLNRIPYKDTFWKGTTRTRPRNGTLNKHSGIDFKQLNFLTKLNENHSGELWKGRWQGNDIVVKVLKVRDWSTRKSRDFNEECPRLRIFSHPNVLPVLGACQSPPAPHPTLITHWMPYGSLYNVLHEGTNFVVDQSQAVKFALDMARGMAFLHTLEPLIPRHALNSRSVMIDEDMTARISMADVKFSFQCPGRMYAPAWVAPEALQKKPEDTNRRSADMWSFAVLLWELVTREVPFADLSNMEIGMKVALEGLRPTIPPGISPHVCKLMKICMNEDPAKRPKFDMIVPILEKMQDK

[8] = molecular target: Tyrosine-protein kinase CSK (Homo sapiens, UniProt P41240)
[9] = molecular target: Mitogen-activated protein kinase kinase kinase 20 (Homo sapiens, UniProt Q9NYL2)
Mitogen-activated protein kinase kinase kinase 20, sequence (Q9NYL2 whole entry): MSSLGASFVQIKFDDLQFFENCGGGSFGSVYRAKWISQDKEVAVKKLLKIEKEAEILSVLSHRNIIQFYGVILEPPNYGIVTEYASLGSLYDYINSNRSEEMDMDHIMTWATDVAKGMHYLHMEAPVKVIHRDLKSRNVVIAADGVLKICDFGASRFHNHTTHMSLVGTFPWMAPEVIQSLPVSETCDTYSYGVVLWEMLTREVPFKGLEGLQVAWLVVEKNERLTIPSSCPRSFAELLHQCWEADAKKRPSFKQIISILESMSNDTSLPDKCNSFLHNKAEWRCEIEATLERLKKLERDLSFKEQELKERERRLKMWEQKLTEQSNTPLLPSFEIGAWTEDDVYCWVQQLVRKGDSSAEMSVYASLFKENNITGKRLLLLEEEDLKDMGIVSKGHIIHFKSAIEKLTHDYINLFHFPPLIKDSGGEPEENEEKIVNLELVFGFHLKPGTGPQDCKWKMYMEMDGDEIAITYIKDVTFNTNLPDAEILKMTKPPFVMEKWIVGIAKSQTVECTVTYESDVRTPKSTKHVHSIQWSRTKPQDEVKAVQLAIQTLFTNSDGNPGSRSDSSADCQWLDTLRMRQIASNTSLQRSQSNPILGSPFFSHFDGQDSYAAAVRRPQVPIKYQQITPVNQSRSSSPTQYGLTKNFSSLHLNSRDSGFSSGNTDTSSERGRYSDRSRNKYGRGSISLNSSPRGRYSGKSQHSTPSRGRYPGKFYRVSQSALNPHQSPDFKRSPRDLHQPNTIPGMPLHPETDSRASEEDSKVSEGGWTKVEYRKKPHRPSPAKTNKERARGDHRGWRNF

[10] = molecular target: Bone morphogenetic protein receptor type-1B (Homo sapiens, UniProt O00238)
[11] = molecular target: cAMP-dependent protein kinase catalytic subunit alpha (Homo sapiens, UniProt P17612)
Also: in the data inactive means no Kd found up to 30 µM.

| Kd [1] | Kd [2] | Kd [3] | Kd [5] | Kd [6] | Kd [7] | Kd (Scaffold protein ILK) | Kd [8] | Kd [9] | Kd [10] | Kd [11] | Compound | Kd [4] |
| --- | --- | --- | --- | --- | --- | --- | --- | --- | --- | --- | --- | --- |
| > 30 µM (inactive) | > 30 µM (inactive) | > 30 µM (inactive) | > 30 µM (inactive) | > 30 µM (inactive) | > 30 µM (inactive) | > 30 µM (inactive) | > 30 µM (inactive) | 0.274 µM (active) | > 30 µM (inactive) | > 30 µM (inactive) | CNC(=O)c1cc(Oc2ccc(NC(=O)Nc3ccc(Cl)c(C(F)(F)F)c3)c(F)c2)ccn1 [REGORAFENIB] | > 30 µM (inactive) |
| > 30 µM (inactive) | > 30 µM (inactive) | > 30 µM (inactive) | > 30 µM (inactive) | > 30 µM (inactive) | > 30 µM (inactive) | > 30 µM (inactive) | 2.15 µM (active) | 0.065 µM (active) | > 30 µM (inactive) | > 30 µM (inactive) | Cc1ccc(NC(=O)c2ccc(CN3CC[C@H](N(C)C)C3)c(C(F)(F)F)c2)cc1Nc1nccc(-c2cncnc2)n1 [BAFETINIB] | > 30 µM (inactive) |
| > 30 µM (inactive) | > 30 µM (inactive) | > 30 µM (inactive) | > 30 µM (inactive) | > 30 µM (inactive) | > 30 µM (inactive) | > 30 µM (inactive) | > 30 µM (inactive) | > 30 µM (inactive) | > 30 µM (inactive) | > 30 µM (inactive) | Cn1cc(-c2ccc(F)c(C(F)(F)F)c2)nc1C1CCN(c2ncnc3[nH]ncc23)CC1 [LY-2584702] | > 30 µM (inactive) |
| > 30 µM (inactive) | > 30 µM (inactive) | > 30 µM (inactive) | > 30 µM (inactive) | > 30 µM (inactive) | 0.017 µM (active) | > 30 µM (inactive) | > 30 µM (inactive) | > 30 µM (inactive) | > 30 µM (inactive) | > 30 µM (inactive) | O=C1NC(=O)/C(=C/c2ccc3nccc(-c4ccncc4)c3c2)S1 [GSK-1059615] | > 30 µM (inactive) |
| > 30 µM (inactive) | 0.104 µM (active) | 4.36 µM (active) | > 30 µM (inactive) | > 30 µM (inactive) | > 30 µM (inactive) | > 30 µM (inactive) | > 30 µM (inactive) | > 30 µM (inactive) | > 30 µM (inactive) | 3.6 µM (active) | CCS(=O)(=O)N1CC(CC#N)(n2cc(-c3ncnc4[nH]ccc34)cn2)C1 [BARICITINIB] | > 30 µM (inactive) |
| 2.96 µM (active) | > 30 µM (inactive) | 3.62 µM (active) | > 30 µM (inactive) | > 30 µM (inactive) | 7.15 µM (active) | > 30 µM (inactive) | > 30 µM (inactive) | > 30 µM (inactive) | > 30 µM (inactive) | > 30 µM (inactive) | O=C(Nc1ccc(-c2ccnc(Nc3ccc(N4CCOCC4)cc3)n2)cc1)C1CCCN1 (centres undefined) [XL-019] | > 30 µM (inactive) |
| > 30 µM (inactive) | > 30 µM (inactive) | > 30 µM (inactive) | > 30 µM (inactive) | > 30 µM (inactive) | > 30 µM (inactive) | > 30 µM (inactive) | > 30 µM (inactive) | 9.54 µM (active) | > 30 µM (inactive) | > 30 µM (inactive) | COc1cc(CCc2cc(NC(=O)c3ccc(N4C[C@@H](C)N[C@@H](C)C4)cc3)n[nH]2)cc(OC)c1 [AZD-4547] | > 30 µM (inactive) |
| > 30 µM (inactive) | > 30 µM (inactive) | > 30 µM (inactive) | > 30 µM (inactive) | > 30 µM (inactive) | > 30 µM (inactive) | > 30 µM (inactive) | > 30 µM (inactive) | > 30 µM (inactive) | > 30 µM (inactive) | > 30 µM (inactive) | COc1cc(OC)c(/C=C/S(=O)(=O)Cc2ccc(OC)c(NCC(=O)O)c2)c(OC)c1 [RIGOSERTIB] | > 30 µM (inactive) |
| > 30 µM (inactive) | 35.4 µM (active) | > 30 µM (inactive) | > 30 µM (inactive) | > 30 µM (inactive) | 7.92 µM (active) | > 30 µM (inactive) | > 30 µM (inactive) | > 30 µM (inactive) | > 30 µM (inactive) | > 30 µM (inactive) | CN1CCC(CNc2ccc3ncc(-c4cccc(OC(F)(F)F)c4)n3n2)CC1 [SGI-1776] | > 30 µM (inactive) |
| > 30 µM (inactive) | > 30 µM (inactive) | > 30 µM (inactive) | > 30 µM (inactive) | > 30 µM (inactive) | > 30 µM (inactive) | > 30 µM (inactive) | > 30 µM (inactive) | > 30 µM (inactive) | > 30 µM (inactive) | > 30 µM (inactive) | Cc1c(F)cc(C(=O)NC2CC2)cc1-c1ccc(C(=O)NCC(C)(C)C)cn1 [LOSMAPIMOD] | > 30 µM (inactive) |
| > 30 µM (inactive) | > 30 µM (inactive) | > 30 µM (inactive) | > 30 µM (inactive) | > 30 µM (inactive) | > 30 µM (inactive) | > 30 µM (inactive) | > 30 µM (inactive) | > 30 µM (inactive) | > 30 µM (inactive) | > 30 µM (inactive) | CC[C@@H]1C(=O)N(C)c2cnc(Nc3ccc(C(=O)N[C@H]4CC[C@H](N5CCN(CC6CC6)CC5)CC4)cc3OC)nc2N1C(C)C [VOLASERTIB] | > 30 µM (inactive) |
| > 30 µM (inactive) | > 30 µM (inactive) | > 30 µM (inactive) | > 30 µM (inactive) | > 30 µM (inactive) | > 30 µM (inactive) | > 30 µM (inactive) | > 30 µM (inactive) | > 30 µM (inactive) | > 30 µM (inactive) | > 30 µM (inactive) | Cc1cc([C@@H](C)Nc2ccccc2C(=O)O)c2nc(N3CCOCC3)cc(=O)n2c1 [AZD-6482] | > 30 µM (inactive) |
